Reference: patent publication US11261180B2, “Cyclohexyl acid isoxazole azoles as LPA antagonists” (Bristol-Myers Squibb Company, priority 2017, dated 2022)
Each block holds one compound with its values, some of them ahead of it.

How the values were obtained:
nerve-injured mice = conditions: pretreatment; cited from earlier work
LPA1 [1] = target: T1, LPA1 (Homo sapiens, UniProt Q92633); set-up: host or cells: IPF patients (in vivo); conditions: 26-week clinical trial, IPF patients; cited from earlier work
LPA1 [2] = target: T1, LPA1; assay: LPA1 functional antagonist assay (calcium flux in CHO cells overexpressing human LPA1); assay type: cell-based; set-up: expressed in transfected cells; host or cells: Chinese hamster ovary (CHO) cells; conditions: CHO cells overexpressing human LPA1, calcium flux induced by 10 nM LPA; read-out: hLPA1 IC50
Procedure: The effectiveness of compounds of the present invention as LPA1 inhibitors can be determined in an LPA1 functional antagonist assay as follows:
Chinese hamster ovary cells overexpressing human LPA1 were plated overnight (15,000 cells/well) in poly-D-lysine coated 384-well microplates (Greiner bio-one, Cat #781946) in DMEM/F12 medium (Gibco, Cat #11039). Following overnight culture, cells were loaded with calcium indicator dye (AAT Bioquest Inc, Cat #34601) for 30 minutes at 37° C. The cells were then equilibrated to room temperature for 30 minutes before the assay. Test compounds solubilized in DMSO were transferred to 384 well non-binding surface plates (Corning, Cat #3575) using the Labcyte Echo acoustic dispense and diluted with assay buffer [[…] with calcium/magnesium (Gibco Cat #14025-092), 20 mM HEPES (Gibco Cat #15630-080) and 0.1% fatty acid free BSA (Sigma Cat #A9205)] to a final concentration of 0.5% DMSO. Diluted compounds were added to the cells by FDSS6000 (Hamamatsu) at final concentrations ranging from 0.08 nM to 5 μM. and were then incubated for 20 min at room temperature at which time LPA (Avanti Polar Lipids Cat #857130C) was added at final concentrations of 10 nM to stimulate the cells. The compound IC50 value was defined as the concentration of test compound which inhibited 50% of the calcium flux induced by LPA alone. IC50 values were determined by fitting data to a 4-parameter logistic equation (GraphPad Prism, San Diego Calif.).

UUO mice = conditions: compared with LPA1 (-/-) mice; cited from earlier work
[3] = tested on: highly peritoneal metastatic pancreatic cancer cell line; conditions: cited from earlier work
[4] = tested on: human foetal lung fibroblasts; conditions: cited from earlier work
[5] = tested on: pancreatic cancer cell lines; conditions: cited from earlier work
CTGF = conditions: MCT cells, co-treatment with LPA; cited from earlier work

T1 sequence (Q92633 whole entry): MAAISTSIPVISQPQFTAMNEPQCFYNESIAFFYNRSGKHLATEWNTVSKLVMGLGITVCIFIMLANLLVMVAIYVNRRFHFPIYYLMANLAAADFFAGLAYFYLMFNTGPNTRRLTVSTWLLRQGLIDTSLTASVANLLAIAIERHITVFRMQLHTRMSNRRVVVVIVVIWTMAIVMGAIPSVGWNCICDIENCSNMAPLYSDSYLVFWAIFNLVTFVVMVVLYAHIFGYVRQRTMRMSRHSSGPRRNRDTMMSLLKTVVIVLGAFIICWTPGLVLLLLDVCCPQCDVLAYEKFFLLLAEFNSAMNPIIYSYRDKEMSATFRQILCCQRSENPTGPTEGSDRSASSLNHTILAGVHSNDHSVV

Compound: C[C@@H](N)[C@H]1CC[C@H](C(=O)Nc2ccncc2)CC1 [Example Y-27632]
allodynia and hyperalgesia (nerve-injured mice): completely abolished

Compound: Cc1noc(-c2ccc(-c3ccc(C4(C(=O)O)CC4)cc3)cc2)c1NC(=O)O[C@H](C)c1ccccc1 [BMS-986020]
rate of FVC (forced vital capacity) decline (LPA1 [1]): significantly reduce the rate of FVC (forced vital capacity) decline

Compound: Cc1nc(-c2onc(C)c2CNc2ncn(-c3ccccc3)n2)ccc1O[C@H]1CCC[C@H](C(=O)O)C1 [Example 7]
IC50 (LPA1 [2]): 29 nM

Compound: Cc1noc(-c2ccc(CSCCC(=O)O)cc2)c1NC(=O)OC(C)c1ccccc1Cl (centres unmarked) [Ki16425]
renal fibrosis profile in UUO mice (UUO mice): closely resembled the profile of LPA1 (−/−) mice
LPA-induced and ascites-induced invasion activity [3]: blocked
chemotaxis of human foetal lung fibroblasts induced by BAL from IPF patients [4]: blocked
increased fibroblast chemotactic activity in bronchoalveolar lavage samples of IPF subjects [4]: inhibited
in vitro migration in response to LPA and peritoneal fluid (ascites) from pancreatic cancer patients [5]: effectively blocked
LPA induction of CTGF expression (CTGF): almost completely suppressed

Next, values leading:

IC50 (LPA1 [2]): 153 nM
Compound: Cc1noc(-c2ccc(O[C@H]3CCC[C@H](C(=O)O)C3)cn2)c1CNc1nc(-c2ccccc2)ns1 [Example 4, (1S,3S)-3-((6-(3-methyl-4-(((3-phenyl-1,2,4-thiadiazol-5-yl)amino)methyl)isoxazol-5-yl)pyridin-3-yl)oxy) cyclohexane-1-carboxylic acid]

IC50 (LPA1 [2]): 712 nM
Compound: Cc1noc(-c2ccc(O[C@H]3CCC[C@H](C(=O)O)C3)cn2)c1CNc1ncc(-c2ccccc2)s1 [Example 3, (1S,3S)-3-((6-(3-methyl-4-(((5-phenyl-thiazol-2-yl)amino)methyl)isoxazol-5-yl)pyridin-3-yl)oxy) cyclohexane-1-carboxylic acid]

IC50 (LPA1 [2]): 2470 nM
Compound: CCCc1nnc(NCc2c(C)noc2-c2ccc(O[C@H]3CCC[C@H](C(=O)O)C3)cn2)s1 [Example 1, (1S,3S)-3-((6-(3-methyl-4-(((5-propyl-1,3,4-thiadiazol-2-yl)amino)methyl)isoxazol-5-yl)pyridin-3-yl)oxy)cyclohexane-1-carboxylic Acid]

IC50 (LPA1 [2]): 486 nM
Compound: Cc1noc(-c2ccc(O[C@H]3CCC[C@H](C(=O)O)C3)cn2)c1CNc1ncc(C(F)(F)F)s1 [Example 6, (1S,3S)-3-((6-(3-methyl-4-(((5-(trifluoromethyl)thiazol-2-yl)amino)methyl)isoxazol-5-yl)pyridin-3-yl)oxy)cyclohexane-1-carboxylic acid]

IC50 (LPA1 [2]): 41 nM
Compound: Cc1nc(NCc2c(C)noc2-c2ccc(O[C@H]3CCC[C@H](C(=O)O)C3)cn2)sc1-c1ccccc1 [Example 5]
